Assay results from patent publication US20250177458A1, “USES OF BIFIDOBACTERIUM LONGUM MICROORGANISMS HAVING THE CAPACITY TO DEGRADE BOTH HMO AND PLANT-DERIVED GLYCANS” (SOCIETE DES PRODUITS NESTLE S.A., priority 2022, published 2025).

Tested on: transitional B. longum isolate NCC5004
Test: in vitro tube fermentation of fecal sample supplemented with isolate NCC5004, isolate-specific qPCR
Format: cell-based, Bifidobacterium longum
Details: HMO 5 g/L as single carbon source, toddler fecal community, after 24 hr and 48 hrs
Experimental: All bacterial strains retrieved from the Nestlé Culture Collection (NCC) were reactivated from a freeze-dried stock using two successive culturing steps (16 h, 37° C., anaerobiosis) in MRS (De Man, Rogosa and Sharpe) media supplemented with 0.05% cysteine (MRSc). Reactivated cultures were then centrifuged, washed, and resuspended in 1 volume of PBS.
For in vitro tube fermentation experiments, pulverized or homogenized stool samples were mixed 10-fold by adding PBS/glycerol (1/10) (w/v) before centrifugation at 600×g for 2 minutes. The slurry and pellet were then stored at −80° C. Frozen slurry of a fecal sample was thawed from storage and then use for the in vitro tube fermentation assays. The fecal slurry was inoculated with media based on that disclosed in Gibson et al. (Applied and Environmental Microbiology; 1988; 54(11); 2750-2755) with some modifications, specifically the exclusion of any carbon source. […]
The in vitro tube fermentation assays (n=3 per testing group) were set up at 37° C. with gentle stirring in an anaerobic environment (gas flow of pure N2 and a mix of N2, H2, and CO2 to ensure anaerobic conditions). Aliquots (0.5 mL) from fermentation tubes were taken and DNA was extracted, purified and analyzed at the time points indicated (0 hr, 24 hr and 48 hr). […]

Substance	growth of NCC5004 (qPCR absolute abundance) compared to baseline (0 hrs)
2′ fucosyllactose [2′FL]	significant growth
3-fucosyllactose [3 FL]	significant growth
